Experimental data taken from patent US20190247302A1, “MATERIALS AND METHODS FOR TREATING OPHTHALMIC INFLAMMATION” (University of Miami, priority 2016, published 2019).
“Also recorded” adds a separate entry of the source.

Legend:
[1] = Concentration of bromodomain inhibitor achievable in the new ophthalmic formulation; format: physicochemical; conditions: 0.5% DMSO, 0.5% Tween-80, 0.9% NaCl, 1.8% Captisol, versus previous formulations
From the text: Next, to address whether local administration of bromodomain inhibitors could be used to regulate ocular inflammatory responses, an ophthalmic formulation BRDi compounds was developed. De novo development was required because the solution required to dissolve these non-polar compounds was not amenable to application to the ocular surface, as they require dilution in high concentrations of DMSO and Tween 80.
To address this issue, a new ophthalmic formulation was developed. The bromodomain inhibitors were successfully diluted at higher concentrations when formulated with DMSO, polysorbate (Tween-80), preservative free 0.9% NaCl, and captisol (Captisol®), which is a polyanionic beta-cyclodextrin derivative providing. […] Using this new formulation, the concentrations of both DMSO and Tween-80 were able to be reduced, from 5% to 0.5% of each (which is tolerable to the eye). The final solution containing the bromodomain inhibitors was 0.5% DMSO, 0.5% Tween-80 and 1.8% Captisol.

[2] = test system: LPS-induced keratitis; test: LPS-induced keratitis, local BRDi administration; clinical haze score; format: in vivo
From the text: FIG. 5 is a bar graph illustrating the effect of prior formulations on corneal clarity and corneal edema following LPS-induced keratitis. Y axis=clinical haze score; X axis=time after application of LPS+formulations (IBET151, topical (solid bar); IBET151, subconjunctival (hashed bar); solvent, subconjunctival (dotted bar)). […] FIG. 6 is a bar graph illustrating the effect of a formulation of the instant disclosure (administered via subconjunctival injection) on corneal clarity and corneal edema following LPS-induced keratitis. Y axis=clinical haze score; X axis=time after application of LPS+IBET151 formulation (solid bar); solvent alone (hashed bar); saline (dotted bar)). […] FIG. 7 is a bar graph illustrating the effect of a formulation of the instant disclosure (topical administration) on corneal clarity and corneal edema following LPS-induced keratitis. Y axis=clinical haze score; X axis=time after application of LPS+JQ1 formulation (topical, hashed bar); solvent alone (subconjunctival, dotted bar)). […] Next, to address whether local administration of bromodomain inhibitors could be used to regulate ocular inflammatory responses, an ophthalmic formulation BRDi compounds was developed. De novo development was required because the solution required to dissolve these non-polar compounds was not amenable to application to the ocular surface, as they require dilution in high concentrations of DMSO and Tween 80. […] The new formulation comprising bromodomain inhibitor IBET-151 was delivered locally in the eye by subconjunctival injection (20 μg/kg/body weight) just prior and during the induction of in vivo LPS-induced keratitis. […] To confirm that a second bromodomain inhibitor could successfully be used in the ocular compartment to reduce inflammation, JQ1 dissolved in the new ophthalmologic formulation was locally administered (1 μg/μl). The formulation was applied topically, i.e. on the corneal surface 1 drop/3× per day.

[3] = test system: TNFα production in RAW cells; test: TNFα protein in LPS-treated RAW cells, intracellular antibody staining and flow cytometry; format: cell-based; conditions: 1 μg/ml LPS, BRDi 67.5-500 nM
Experimental: Y axis=TNFα percentage of P1 gate; X axis=no LPS/no BRDi, 1 μg/ml LPS/no BRDi, BRDI 500 nM LPS, BRDI 250 nM LPS, BRDI 125 nM LPS, BRDI 67.5 Nm LPS. Triangles=JQ1; squares=IBET151; circles=EP313.
Studies then examined protein production and confirmed that TNFα was reduced by treating RAW cells in vitro with multiple bromodomain inhibitor compounds (FIG. 2).

[4] = test system: conjunctival epithelial cells (HCEC); test: Cytokine mRNA in LPS-exposed human conjunctival epithelial cells (HCEC); format: cell-based; conditions: 3 hours LPS, 500 nM
Experimental: (§1) FIGS. 8A-8C are a bar graph illustrating the effect of BRDi on a human ocular surface primary parenchymal cell line. FIG. 8A illustrates cytokine/GAPDH mRNA levels (ratio to no treatment) (Y-axis) of IL-8, IL-1β, IL-6, TNFα, and CCL2 in HCEC administered no treatment (solid bars), three hours after exposure to LPS (gray bar), and three hours after exposure to LPS and JQ1 (500 nM, hashed bar). FIG. 8B illustrates cytokine/GAPDH mRNA levels (ratio to no treatment) (Y-axis) of IL-8, IL-1β, and IL-6 in keratocytes administered no treatment (solid bars), four hours after exposure to LPS (gray bar), four hours after exposure to LPS and JQ1 (500 nM, hashed bar), and four hours after exposure to LPS and EP313 (500 nM, checked bar). FIG. 8C illustrates cytokine/GAPDH mRNA levels (ratio to no treatment) (Y-axis) of CCL2 in keratocytes administered no treatment (solid bars), four hours after exposure to LPS (gray bar), four hours after exposure to LPS and JQ1 (500 nM, hashed bar), and four hours after exposure to LPS and EP313 (500 nM, checked bar).
The ability of BRDi compounds to regulate production of dry eye-associated cytokines and chemokines produced by human ocular parenchymal cell populations also was examined. In vitro cells from the cornea and conjunctiva compartments of donated human eyes (Florida Lions Bank) were expanded. Primary cell lines were developed comprising either corneal keratocytes or conjunctival epithelial cells (HCEC) (FIG. 8A-8C). Following 3 hr. exposure to LPS, HCEC produced significant levels of IL-8, […], TNFα, CCL2, and detectable levels of IL-6 RNA (FIG. 8A). […] Corneal keratocyte cultures were also examined for RNA production and were also regulated by BRDi compounds JQ1 and EP313 (FIGS. 8B and 8C). […] These observations extend the potential of BRDi to inhibit ocular inflammation. Additionally, differences may exist between the families of BRDi compounds such that particular BRDi may be more useful under a specific set of disease conditions.

[5] = test system: corneal keratocytes; test: Cytokine mRNA in LPS-exposed human corneal keratocytes; format: cell-based; conditions: 4 hours LPS, 500 nM
Experimental: as §1
The ability of BRDi compounds to regulate production of dry eye-associated cytokines and chemokines produced by human ocular parenchymal cell populations also was examined. In vitro cells from the cornea and conjunctiva compartments of donated human eyes (Florida Lions Bank) were expanded. […]

SMILES	concentration of bromodomain inhibitor that can be formulated [1]	clinical haze score (corneal clarity and corneal edema) ([2]; new formulation RLVP.001, subconjunctival injection, 20 μg/kg/body weight)	clinical haze score (corneal clarity and corneal edema) ([2]; new formulation RLVP.001, subconjunctival injection, 20 μg/kg/body weight, listed as IBET-151)	TNFα protein (TNFα percentage of P1 gate) [3]	CCL2 RNA level [4]	IL-1β RNA level [4]	IL-6 RNA level [4]	IL-8 RNA level [4]	TNFα RNA level [4]	cytokine RNA production [5]	clinical haze score (corneal clarity and corneal edema) ([2]; new formulation RLVP.001, topical, 1 μg/μl, 1 drop/3× per day)
COc1cc2c(cc1-c1c(C)noc1C)ncc1[nH]c(=O)n([C@H](C)c3ccccn3)c12 [IBET151]	significantly higher concentrations	prevents corneal opacification	ameliorates the development of corneal inflammation	TNFα protein inhibition	–	–	–	–	–	–	–
Cc1sc2c(c1C)C(c1ccc(Cl)cc1)=N[C@@H](CC(=O)OC(C)(C)C)c1nnc(C)n1-2 [JQ1]	significantly higher concentrations	–	–	TNFα protein inhibition	marked decreases	marginally reduced	marked decreases	marked decreases	marked decreases	regulated	prevents corneal opacification; also recorded: successfully ameliorated the inflammatory response in the cornea
